# Data taken from a melting point compilation (Tetko et al.; mined from patent text by program, amines drawn as free bases though some values may be those of a salt).
row,Structure (SMILES),melting point [°C]
1,COc1ccc(C=C2SC(=O)N(CCc3ccccn3)C2=O)cc1-c1cc2c(cc1C)C(C)(C)CCC2(C)C,170 to 171
2,O=c1nc(NO)ccn1C1OC(CO)C(O)C1O (stereo not given),173 to 176
3,COc1cc(NC(=O)CC23CC4CC(CC(C4)C2)C3)c(C)c([N+](=O)[O-])c1,141 to 142
4,COc1ccc(CC2CCN(C(=O)C(=O)Nc3ccc4[nH]c(=O)oc4c3)CC2)cc1,193 to 197
5,CCc1c(N)c(C)cc(Cc2cc(C)c(N)c(CC)c2Cl)c1Cl,143 to 148
6,CC(Oc1ccc2nc(NC(=O)NCCN3CCOCC3)sc2c1)c1c(Cl)cccc1Cl (stereo not given),165 to 168
7,O=C1N(C(c2ccccc2)c2ccccc2)c2ccccc2C12COc1ccc(-c3cccnc3)cc12 (stereo not given),204 to 207
8,CCOC(=O)CCCSc1nccc(NC(=S)NCC(F)(F)F)n1,104 to 106
9,CC(C)(Oc1ccc(OCc2nc(-c3ccc(C(F)(F)F)cc3)no2)cc1)C(=O)O,164
10,COc1ccc2nc(NC(=O)c3nnn(Cc4ccc(Cl)c(Cl)c4)c3C)sc2c1,225
11,CC(C)(CO)c1ccc(Cl)cc1,46 to 48
12,CN1CCN(c2nc3c(c(NCCO)n2)SCCC3)CC1,162 to 164
13,O=C(CCCSc1ccccc1)N1C(=O)OCC1Cc1ccccc1 (stereo not given),84 to 85
14,N#Cc1ccccc1C=Cc1ccccc1C#N,187 to 189
15,COc1ccc(C=Cc2cc(OC)c3c(c2)OCO3)cc1O,145 to 150
16,CCCC[C@H](NC(=O)[C@H](CC(C)C)NC(=O)OCc1ccccc1)C(=O)CCCc1cccs1,65 to 67
17,CC(C)n1nc(-c2c(OCc3ccccn3)nc(N)nc2-c2ccccc2)ccc1=O,177 to 178
18,CN(C)CCN(C1CCS(=O)(=O)C1)S(=O)(=O)c1ccc(Nc2nccc(Nc3ccc(F)cc3)n2)cc1 (stereo not given),162 to 165
19,CN(c1cccc2cc(C3=NCC(CN4CCS(=O)CC4)S3)[nH]c12)S(=O)(=O)c1cccs1 (stereo not given),204
20,C#CCC1(c2ccc(Cl)cc2)Cc2cc(OCC(=O)O)c(Cl)c(Cl)c2C1=O (stereo not given),200 to 201

row,Structure (SMILES),melting point [°C]
1,O=C(O)CCSC(SCCC(=O)O)c1cccc(OCc2ccc3ccccc3n2)c1,150 to 152
2,O=C(Nc1cccc2c(=O)cc(C(=O)O)oc12)c1ccc2c(c1)CC(CSCc1ccccc1)O2 (stereo not given),122 to 125
3,CCOC(=O)C1=C(COCc2nc(CCN)cs2)NC(C)=C(C(=O)OC)C1c1cccc(Cl)c1Cl (stereo not given),110 to 112
4,CCOC(=O)C(O)=Cc1ncc(CCc2ccc(F)cc2)cn1,133 to 134
5,COc1ccc([N+](=O)[O-])c(C#N)c1CBr,137 to 138
6,CCCCc1nc(Sc2ccccc2)c(C(=O)OCC)[nH]1,74
7,COc1ccc(Cn2cc(C(=O)O)c(=O)c3ccc(N4CCNCC4)cc32)cc1,230 to 235
8,COc1cc(OC)c2c(=O)[nH]c(-c3ccc(Cc4nnn[nH]4)cc3)nc2c1,295 to 296
9,Nc1cc(-c2nnc(SCc3cccc(F)c3)o2)ccn1,175 to 176
10,CC(C(=O)O)c1ccc2c(c1)CC(C(C)C)C2 (stereo not given),90 to 91.5
11,CC(C)(CCCCC(=O)CCCCC1(C(=O)O)CC1)C(=O)O,49 to 52
12,C[C@](O)(CNC(=O)c1cnc(OCC(F)(F)F)c(-c2ccc(Cl)cc2)n1)C1CC1,96 to 97
13,C=CS(=O)(=O)c1ccc(/C(=C\C2CCCCC2)C(=O)OC)cc1Cl,105 to 108
14,CN(Cc1ccc(NC(=O)C2=Cc3cc(-c4ccc(OC(F)(F)F)cc4)ccc3S(=O)(=O)CC2)cc1)C1CCOCC1,261 to 263
15,O=C1CCc2c1cnn2Cc1ccccc1,92 to 93
16,O=C1CC2CC(n3c(=O)[nH]c4ccccc43)CC2C1 (stereo not given),246 to 248
17,COc1ccc(OC)c2c1CC1OC1C2 (stereo not given),130 to 132
18,CCOc1cc2c(cc1OC)C(c1ccc(C(=O)OC)cc1)=N[C@@H]1CCOC[C@H]21,141 to 143
19,Cc1ccc(C2CCN(Cc3ccc(COc4cccc5c4CN(C4CCC(=O)NC4=O)C5=O)cc3)CC2)cc1 (stereo not given),208 to 210
20,O=[N+]([O-])c1ccc(-c2nsc(Cl)n2)cc1,143 to 145

row,Structure (SMILES),melting point [°C]
1,CCc1c(C)c(=O)n(-c2cc(OC(C)C)c(Cl)cc2F)c(=O)n1C,88 to 91
2,CC(=O)c1ccc(Br)c(S(=O)(=O)Cl)c1,107
3,CC(=O)Nn1cc(-c2cccnc2)nc1Cl,129 to 131
4,CCN(C=NS(=O)(=O)NC(=O)Nc1nc(OC)cc(OC)n1)CSC,143 to 144
5,COc1ccc(-n2nc(OC(C)C)cc2-c2ccc(OCCNS(C)(=O)=O)cc2)cn1,121 to 122
6,CC(=O)c1cccc2c1OC1(CC1)C2=O,114 to 115
7,CN1CC(CN2C(=O)c3ccccc3C2=O)CC2c3cc(C(C)(C)C)cc4[nH]cc(c34)CC21 (stereo not given),132 to 137
8,Clc1cccc(Nc2ncnc3[nH]nc(NCc4ccccc4)c23)c1,214 to 217
9,COc1ccc(C(=O)Nc2ccccc2)cc1Nc1cc(Cl)cc(Cl)c1,207 to 208
10,O=C(O)c1cc(Br)cc2c1NCCS2(=O)=O,250 to 251
11,CS(=O)(=O)c1ccc(-n2nc(CNC(=O)Nc3ccccc3)cc2-c2ccccc2)cc1,95.7 to 104
12,COC(=O)CCC(=C1SCCCS1)c1ccc(Oc2ccccc2)cc1,95 to 96
13,CCN(CC)CCC(=O)OCC1CC(c2ccc(-c3ccc(N4CC(Cn5ccnn5)OC4=O)cc3F)cn2)=NO1 (stereo not given),167
14,O=C(COc1ccc2ccc(=O)oc2c1)c1ccccc1,163 to 165
15,O=Cc1ccc2oc(-c3ccc4ccc(Cl)cc4n3)cc2c1,235 to 236
16,N#Cc1cc(C(=O)c2cccs2)ccc1O,216
17,COc1cc(C(=O)c2c[nH]c(-c3cn(S(=O)(=O)c4ccccc4)c4ccccc34)n2)cc(OC)c1OC,110 to 112
18,NC1=NN(c2ccc(C(=O)C(F)(F)F)cc2)C(c2ccccc2)C1 (stereo not given),214 to 216

# The next lines start with the values.
row,melting point [°C],Structure (SMILES)
1,177 to 179,CNC(=O)c1ccnc(NC(=O)N2CCC3(CCc4ccc(F)cc4O3)CC2)c1
2,291 to 297,COc1ccc2c(O)c(CO)cnc2c1
3,81 to 86,O=C(COc1ccc(Cl)cc1)c1ccccc1
4,139 to 140,COc1cccc2c(=O)cc(-c3ccccc3SCc3ccccc3)[nH]c12
5,214 to 216,CN(C)C(=O)Nc1nc2ccccc2s1
6,123 to 126,CN(C)CCCC1(O)c2ccccc2C=Cn2cc(C#N)cc21 (stereo not given)
7,132 to 135,CC(=O)CC(=O)N[C@H]1CC(=O)OC1=O
8,233 to 235,Cn1c(S(=O)(=O)c2ccc(=O)[nH]n2)cc2ccccc21
9,90 to 91,C=Cc1ccc2nnn(OS(=O)(=O)c3ccc(C)cc3)c2c1
10,71 to 73,COC(=O)CNc1ccc(F)c(F)c1
11,119,O=C(Cl)c1ccc(Cl)c(S(=O)(=O)NC2CCCCC2)c1
12,55 to 57,C=C(C)C[C@H]1CC(C)=CCN1c1ccccc1
13,87 to 95,Cc1noc(NS(=O)(=O)c2ccccc2-c2ccc(CC(C)C)cc2NC=O)c1C
14,150 to 152,CCCNC(=S)c1ccc2c(c1)N(C(C)CN1CCCC1)c1ccccc1S2 (racemic)
15,136 to 138,Cc1ccc(-n2nc(C(F)F)cc2-c2ccc(S(C)(=O)=O)cc2)cc1Br
16,135 to 136,CCCCCCCCCOc1ccccc1/C=C/C(C)=C/C=C/C(C)=C\C(=O)O
17,195,COc1ccccc1[C@H](C)C(=O)N1C[C@@H]2[C@H](F)CCC(c3ccccc3)(c3ccccc3)[C@@H]2C1
18,77 to 78,COc1cc(CCl)ccc1C12CC3CC(CC(C3)C1)C2
19,162 to 163,COc1ccc(NC(=O)c2ccccc2O)cc1
20,149 to 151,CN1C2CCC1CC(NC(=O)c1cccc3oc(-c4ccccc4)nc13)C2 (stereo not given)
21,71.3 to 72.7,CCN(CCO)CCCC1CCN(S(=O)(=O)c2ccc(C(F)(F)F)cc2)CC1

row,melting point [°C],Structure (SMILES)
1,135 to 139,C=C1C(O)C(COC(=O)CCCCCCCCCCCCCCCCC)OC1n1ccc(NC(=O)CCCCCCCCCCCCCCCCC)nc1=O (stereo not given)
2,164 to 166,CC1=C(C(=O)OCC=Cc2ccccc2)C(c2ccccc2C(F)(F)F)c2c(ccnc2OC(C)C)N1 (stereo not given)
3,165,CC1(C)OC(CCN)CC(CC(=O)O)O1 (stereo not given)
4,101 to 102,C=C(C)C(=O)Oc1ccc(S(=O)(=O)Nc2ccccc2)cc1
5,215 to 216,Cc1c(C(=O)Nc2ccc(N3CCC(O)CC3)c(C#N)c2)cnn1-c1ccc(F)cc1
6,88,COC(=O)CCCc1cc2nc(C(F)(F)F)ccc2n1S(=O)(=O)c1ccccc1Cl
7,98 to 100,Cc1cc(Oc2ncc(C(F)(F)F)cc2Cl)nn1C(=O)NCCCl
8,109 to 110,C=CC(=O)NC1CCCCC1
9,129 to 130,COc1ccc2c(c1)CCc1c(C#N)cccc1S2
10,164 to 168,Cc1ccn2cc(CS)nc2c1
11,154 to 156,CC(C)C(=O)N[C@@H](CSC(=O)c1ccccc1)C(=O)NCCSC(=O)c1ccccc1
12,140 to 142,O=C(O)CCC(CSc1ccc2ccccc2c1)C(=O)O (stereo not given)
13,168 to 169,Cc1nc(N(C)Cc2ccco2)c2nc(-c3ccccc3)cc-2[nH]1
14,231 to 233,Cc1cnc2c(NC(=O)c3ccccc3[N+](=O)[O-])ccc(C)c2c1-n1ccnc1
15,97.5 to 99,O=c1c2ccccc2ccc2ccc(I)cc12
16,> 350,O=c1c2c[nH]c3c(c-2nn1-c1ccccc1)CCC3
17,166 to 167,COn1c(C#N)c(C#N)c(Br)c1-c1ccc(Cl)cc1
18,220 to 225,CC(=O)OCc1nc2cc(Cl)c(C)cc2c(=O)[nH]1
19,88 to 89,CCOC(=O)CC1SC(c2cc(C(C)(C)C)c(O)c(C(C)(C)C)c2)N(CCCN(C)CCOc2ccc3c(c2)OCO3)C1=O (stereo not given)
20,103 to 105,O=C(/C=C/c1ccc(O)c(OC(F)(F)F)c1)/C=C/c1ccc(O)c(OC(F)(F)F)c1
21,117 to 119,OC(CNCCNc1cccc2cn[nH]c12)COc1ccccc1 (stereo not given)
